Source: patent US20020137154A1, “Methods for improving cell growth and alcohol production during fermentation” (priority 2000, published 2002)
Like-named read-outs stand apart in the source and are kept apart here.

Test system: recombinant Escherichia coli KO11
Assay: Batch fermentation of E. coli KO11 in 1% CSL medium and glucose with nutrient additives: ethanol production and cell growth
Format: cell-based
Conditions: for Ethanol Production Maximum / Ethanol yield / Initial Growth (OD @ 24 h) OD / Maximum Cell Density OD / Volumetric Productivity Average / Volumetric Productivity Maximum: 1% CSL+glucose; for activity at 500 µg/mL / activity at 250 µg/mL / activity at 750 µg/mL: Escherichia coli

CC=O [Acetaldehyde, acetaldehyde]
initial growth and maximum cell density as compared to a control (1% CSL and glucose, 0.25 g/L at the start): greatest initial growth and maximum cell density | ethanol production as compared to the control (1% CSL and glucose, 0.75 g/L at the start): highest amount of ethanol production | Ethanol Production Maximum (0.25 g/L at start): 40.31 g/L | Ethanol yield (0.25 g/L at start): 0.415 grams of ethanol/grams of added sugar | Initial Growth (OD @ 24 h) OD (0.25 g/L at start): 3.00 OD | Maximum Cell Density OD (0.25 g/L at start): 3.17 OD | Volumetric Productivity Average (0.25 g/L at start): 0.560 grams ethanol/(liter)(hour) | Volumetric Productivity Maximum (0.25 g/L at start): 0.678 grams ethanol/(liter)(hour) | Ethanol Production Maximum (0.5 + 0.25 g/L (start, 8 h)): 40.25 g/L | Ethanol yield (0.5 + 0.25 g/L (start, 8 h)): 0.414 grams of ethanol/grams of added sugar | Initial Growth (OD @ 24 h) OD (0.5 + 0.25 g/L (start, 8 h)): 2.64 OD | Maximum Cell Density OD (0.5 + 0.25 g/L (start, 8 h)): 2.99 OD | Volumetric Productivity Average (0.5 + 0.25 g/L (start, 8 h)): 0.419 grams ethanol/(liter)(hour) | Volumetric Productivity Maximum (0.5 + 0.25 g/L (start, 8 h)): 0.598 grams ethanol/(liter)(hour) | Ethanol Production Maximum (0.5 + 0.5 g/L (start, 8 h)): 40.03 g/L | Ethanol yield (0.5 + 0.5 g/L (start, 8 h)): 0.412 grams of ethanol/grams of added sugar | Initial Growth (OD @ 24 h) OD (0.5 + 0.5 g/L (start, 8 h)): 2.74 OD | Maximum Cell Density OD (0.5 + 0.5 g/L (start, 8 h)): 3.09 OD | Volumetric Productivity Average (0.5 + 0.5 g/L (start, 8 h)): 0.417 grams ethanol/(liter)(hour) | Volumetric Productivity Maximum (0.5 + 0.5 g/L (start, 8 h)): 0.659 grams ethanol/(liter)(hour) | Ethanol Production Maximum (0.5 g/L at start): 39.95 g/L | Ethanol yield (0.5 g/L at start): 0.411 grams of ethanol/grams of added sugar | Initial Growth (OD @ 24 h) OD (0.5 g/L at start): 2.77 OD | Maximum Cell Density OD (0.5 g/L at start): 2.96 OD | Volumetric Productivity Average (0.5 g/L at start): 0.416 grams ethanol/(liter)(hour) | Volumetric Productivity Maximum (0.5 g/L at start): 0.615 grams ethanol/(liter)(hour) | Ethanol Production Maximum (0.75 g/L at start): 43.44 g/L | Ethanol yield (0.75 g/L at start): 0.447 grams of ethanol/grams of added sugar | Initial Growth (OD @ 24 h) OD (0.75 g/L at start): 2.47 OD | Maximum Cell Density OD (0.75 g/L at start): 2.81 OD | Volumetric Productivity Average (0.75 g/L at start): 0.452 grams ethanol/(liter)(hour) | Volumetric Productivity Maximum (0.75 g/L at start): 0.699 grams ethanol/(liter)(hour) | activity at 500 µg/mL (8 h, read-out: Ethanol Production Maximum % Control, 1% CSL+glucose, 0.5 + 0.25 g/L (start, 8 h)): 109% | activity at 500 µg/mL (8 h, read-out: Ethanol Production Maximum % Control, 1% CSL+glucose, 0.5 + 0.5 g/L (start, 8 h)): 108% | activity at 500 µg/mL (8 h, read-out: Maximum Cell Density % Control, 1% CSL+glucose, 0.5 + 0.25 g/L (start, 8 h)): 111% | activity at 500 µg/mL (8 h, read-out: Maximum Cell Density % Control, 1% CSL+glucose, 0.5 + 0.5 g/L (start, 8 h)): 115% | activity at 500 µg/mL (8 h, read-out: Volumetric Productivity Average % Control, 1% CSL+glucose, 0.5 + 0.25 g/L (start, 8 h)): 109% | activity at 500 µg/mL (8 h, read-out: Volumetric Productivity Average % Control, 1% CSL+glucose, 0.5 + 0.5 g/L (start, 8 h)): 108% | activity at 500 µg/mL (8 h, read-out: Volumetric Productivity Maximum % Control, 1% CSL+glucose, 0.5 + 0.25 g/L (start, 8 h)): 116% | activity at 500 µg/mL (8 h, read-out: Volumetric Productivity Maximum % Control, 1% CSL+glucose, 0.5 + 0.5 g/L (start, 8 h)): 128% | activity at 250 µg/mL (24 h, read-out: Initial Growth (OD @ 24 h) % Control, 1% CSL+glucose, 0.25 g/L at start): 112% | activity at 500 µg/mL (24 h, read-out: Initial Growth (OD @ 24 h) % Control, 1% CSL+glucose, 0.5 + 0.25 g/L (start, 8 h)): 98.9% | activity at 500 µg/mL (24 h, read-out: Initial Growth (OD @ 24 h) % Control, 1% CSL+glucose, 0.5 + 0.5 g/L (start, 8 h)): 103% | activity at 500 µg/mL (24 h, read-out: Initial Growth (OD @ 24 h) % Control, 1% CSL+glucose, 0.5 g/L at start): 104% | activity at 750 µg/mL (24 h, read-out: Initial Growth (OD @ 24 h) % Control, 1% CSL+glucose, 0.75 g/L at start): 92.5% | activity at 250 µg/mL (read-out: Ethanol Production Maximum % Control, 1% CSL+glucose, 0.25 g/L at start): 109% | activity at 500 µg/mL (read-out: Ethanol Production Maximum % Control, 1% CSL+glucose, 0.5 g/L at start): 108% | activity at 750 µg/mL (read-out: Ethanol Production Maximum % Control, 1% CSL+glucose, 0.75 g/L at start): 117% | activity at 250 µg/mL (read-out: Maximum Cell Density % Control, 1% CSL+glucose, 0.25 g/L at start): 118% | activity at 500 µg/mL (read-out: Maximum Cell Density % Control, 1% CSL+glucose, 0.5 g/L at start): 110% | activity at 750 µg/mL (read-out: Maximum Cell Density % Control, 1% CSL+glucose, 0.75 g/L at start): 105% | activity at 250 µg/mL (read-out: Volumetric Productivity Average % Control, 1% CSL+glucose, 0.25 g/L at start): 145% | activity at 500 µg/mL (read-out: Volumetric Productivity Average % Control, 1% CSL+glucose, 0.5 g/L at start): 108% | activity at 750 µg/mL (read-out: Volumetric Productivity Average % Control, 1% CSL+glucose, 0.75 g/L at start): 117% | activity at 250 µg/mL (read-out: Volumetric Productivity Maximum % Control, 1% CSL+glucose, 0.25 g/L at start): 132% | activity at 500 µg/mL (read-out: Volumetric Productivity Maximum % Control, 1% CSL+glucose, 0.5 g/L at start): 120% | activity at 750 µg/mL (read-out: Volumetric Productivity Maximum % Control, 1% CSL+glucose, 0.75 g/L at start): 136%
